pIC50: −log10 of the molar value.
What follows are molecules tested against Substance-P receptor (Homo sapiens, UniProt P25103) (assay: Inhibitory activity against Tachykinin receptor 1).
Sequence of Substance-P receptor (P25103 whole entry): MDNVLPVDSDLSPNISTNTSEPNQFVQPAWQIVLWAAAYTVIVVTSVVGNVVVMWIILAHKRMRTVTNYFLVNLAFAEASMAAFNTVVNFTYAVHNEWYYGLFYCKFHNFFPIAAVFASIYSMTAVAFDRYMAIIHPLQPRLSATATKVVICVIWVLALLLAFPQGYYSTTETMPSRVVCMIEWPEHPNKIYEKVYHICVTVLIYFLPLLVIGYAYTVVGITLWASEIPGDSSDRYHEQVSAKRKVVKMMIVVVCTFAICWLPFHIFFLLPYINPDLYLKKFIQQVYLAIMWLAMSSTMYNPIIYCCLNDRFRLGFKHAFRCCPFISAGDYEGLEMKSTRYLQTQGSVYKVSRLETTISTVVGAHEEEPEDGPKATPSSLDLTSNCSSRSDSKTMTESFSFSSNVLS
Work on O=C(Cc1cc(C(F)(F)F)cc(C(F)(F)F)c1)NCC(c1ccc(F)c(F)c1)N1CCC(N2CCCCC2)CC1 (stereo unspecified) yielded a pIC50 of 8.48. CN(CC(c1ccc2c(c1)OCCO2)N1CCC(N2CCCCC2)CC1)C(=O)Cc1cc(C(F)(F)F)cc(C(F)(F)F)c1 (stereo unspecified) gave a pIC50 of 8.05. COc1ccccc1C(CNC(=O)Cc1ccc(Cl)c(Cl)c1)N1CCN(C2CCCCC2)CC1 (stereo unspecified) was tested, and the pIC50 was 6.55. Molecule O=C(Cc1cc(C(F)(F)F)cc(C(F)(F)F)c1)NCC(c1cccc2c1OCO2)N1CCN(C2CCCCC2)CC1 (stereo unspecified) has a pIC50 of 8.80. Molecule O=C(Cc1cc(C(F)(F)F)cc(C(F)(F)F)c1)NCC(c1ccc(Cl)c(Cl)c1)N1CCC(N2CCCCC2)CC1 (stereo unspecified) has a pIC50 of 9.12. For CN(CC(c1ccc(F)c(Cl)c1)N1CCC(N2CCCCC2)CC1)C(=O)Cc1cc(C(F)(F)F)cc(C(F)(F)F)c1 (stereo unspecified), the pIC50 was 8.77. For CN(CC(c1cc(Cl)cc(Cl)c1Cl)N1CCC(N2CCCCC2)CC1)C(=O)Cc1cc(C(F)(F)F)cc(C(F)(F)F)c1 (stereo unspecified), the pIC50 was 8.52. Cc1cc(C)cc(CC(=O)N(C)CC(c2cccc3c2OCO3)N2CCC(N3CCCCC3)CC2)c1 (stereo unspecified) showed a pIC50 of 8.54. With COc1ccccc1C(CNC(=O)Cc1cc(C(F)(F)F)cc(C(F)(F)F)c1)N1CCCCC1 (stereo unspecified) the pIC50 was 6.60. Work on COc1ccccc1C(CNC(=O)Cc1cccc(OC(C)C)c1)N1CCN(C2CCCCC2)CC1 (stereo unspecified) yielded a pIC50 of 6.89. Work on CN(CC(c1cccc2c1OCO2)N1CCN(C2CCCCC2)CC1)C(=O)Cc1cc(C(F)(F)F)cc(C(F)(F)F)c1 (stereo unspecified) yielded a pIC50 of 8.89. Molecule COc1ccccc1C(CNC(=O)Cc1cc(C(F)(F)F)cc(C(F)(F)F)c1)N1CCN(C2Cc3ccccc3C2)CC1 (stereo unspecified) has a pIC50 of 8.14. With COc1ccc(CC(=O)NCC(c2ccccc2OC)N2CCN(C3CCCCC3)CC2)cc1 (stereo unspecified) the pIC50 was 5.66. COc1ccccc1C(C1CCCCN1C(=O)Cc1cc(C(F)(F)F)cc(C(F)(F)F)c1)N1CCC(N2CCCCC2)CC1 (stereo unspecified) was tested, and the pIC50 was 8.37. COc1ccc(C(CN(C)C(=O)Cc2cc(C(F)(F)F)cc(C(F)(F)F)c2)N2CCC(N3CCCCC3)CC2)c(OC)c1OC (stereo unspecified) was tested, and the pIC50 was 7.92. In the case of O=C(Cc1cc(C(F)(F)F)cc(C(F)(F)F)c1)NCC(c1ccc(F)c(Cl)c1)N1CCC(N2CCCCC2)CC1 (stereo unspecified), the pIC50 was 8.54. In the case of COc1cccc(C(CNC(=O)Cc2cc(C(F)(F)F)cc(C(F)(F)F)c2)N2CCC(N3CCCCC3)CC2)c1 (stereo unspecified), the pIC50 was 8.82. O=C(Cc1cc(C(F)(F)F)cc(C(F)(F)F)c1)NCC(c1cccc(C(F)(F)F)c1F)N1CCC(N2CCCCC2)CC1 (stereo unspecified) showed a pIC50 of 8.77. Molecule CN(CC(c1cccc(C(F)(F)F)c1F)N1CCC(N2CCCCC2)CC1)C(=O)Cc1cc(C(F)(F)F)cc(C(F)(F)F)c1 (stereo unspecified) has a pIC50 of 8.85. O=C(Cc1cc(C(F)(F)F)cc(C(F)(F)F)c1)NCC(c1cccc2ccccc12)N1CCC(N2CCCCC2)CC1 (stereo unspecified) showed a pIC50 of 7.85. Molecule CN(CC(c1ccc2c(c1)OCO2)N1CCC(N2CCCCC2)CC1)C(=O)Cc1cc(C(F)(F)F)cc(C(F)(F)F)c1 (stereo unspecified) has a pIC50 of 8.32. With COc1ccccc1C(CNC(=O)Cc1cc(C)cc(C)c1)N1CCC(N2CCCCC2)CC1 (stereo unspecified) the pIC50 was 7.21. With COc1ccccc1CC(=O)N(C)CC(c1cccc2c1OCO2)N1CCC(N2CCCCC2)CC1 (stereo unspecified) the pIC50 was 7.80. Molecule O=C(Cc1cc(C(F)(F)F)cc(C(F)(F)F)c1)NCC(c1cc(Cl)cc(Cl)c1Cl)N1CCC(N2CCCCC2)CC1 (stereo unspecified) has a pIC50 of 8.19. CN(CC(c1ccc(F)c(F)c1F)N1CCC(N2CCCCC2)CC1)C(=O)Cc1cc(C(F)(F)F)cc(C(F)(F)F)c1 (stereo unspecified) gave a pIC50 of 8.74. With O=C(Cc1cc(C(F)(F)F)cc(C(F)(F)F)c1)N1CCCCC1C(CN1CCC(N2CCCCC2)CC1)c1ccccc1 (stereo unspecified) the pIC50 was 5.82. COc1cccc(C(CN(C)C(=O)Cc2cc(C(F)(F)F)cc(C(F)(F)F)c2)N2CCC(N3CCCCC3)CC2)c1OC (stereo unspecified) was tested, and the pIC50 was 8.00. In the case of CC(C)C1CCN(C2CCN(C(CN(C)C(=O)Cc3cc(C(F)(F)F)cc(C(F)(F)F)c3)c3ccc(Cl)c(Cl)c3)CC2)CC1 (stereo unspecified), the pIC50 was 7.82. In the case of COc1ccccc1C(CNC(=O)Cc1cc(C(F)(F)F)cc(C(F)(F)F)c1)N1CCC(N2CCCCC2)CC1 (stereo unspecified), the pIC50 was 8.62. CN(CCc1cc(C(F)(F)F)cc(C(F)(F)F)c1)C(=O)C(Cc1c[nH]c2ccccc12)N1CCN(C2CCCCC2)CC1 (stereo unspecified) was tested, and the pIC50 was 7.92. Molecule COc1ccccc1C(CNC(=O)Cc1ccccc1C(F)(F)F)N1CCN(C2CCCCC2)CC1 (stereo unspecified) has a pIC50 of 6.57. CN(CC(c1cccc2c1OCO2)N1CCC(N2CCCCC2)CC1)C(=O)Cc1ccccc1Br (stereo unspecified) was tested, and the pIC50 was 8.22. O=C(Cc1cc(C(F)(F)F)cc(C(F)(F)F)c1)NCC(c1ccc(Cl)c(Cl)c1)N1CCC(N(CCO)CCO)CC1 (stereo unspecified) gave a pIC50 of 8.28. CN(CC(c1ccccc1)N1CCN(C2CCCCC2)CC1)C(=O)Cc1cc(C(F)(F)F)cc(C(F)(F)F)c1 (stereo unspecified) gave a pIC50 of 8.70. Molecule CN(CC(c1ccccc1Br)N1CCC(N2CCCCC2)CC1)C(=O)Cc1cc(C(F)(F)F)cc(C(F)(F)F)c1 (stereo unspecified) has a pIC50 of 8.96. O=C(Cc1cc(C(F)(F)F)cc(C(F)(F)F)c1)NCC(c1cccc(F)c1)N1CCC(N2CCCCC2)CC1 (stereo unspecified) gave a pIC50 of 8.34. In the case of CN(CC(c1cccc2c1OCO2)N1CCC(N2CCCCC2)CC1)C(=O)Cc1cc(C(F)(F)F)cc(C(F)(F)F)c1 (stereo unspecified), the pIC50 was 8.74. Work on CC(C)Oc1cccc(CC(=O)NCC(c2ccc(Cl)c(Cl)c2)N2CCC(N3CCCCC3)CC2)c1 (stereo unspecified) yielded a pIC50 of 8.30. Molecule COc1ccccc1C(CNC(=O)Cc1cc(C)cc(C)c1)N1CCN(C2CCCCC2)CC1 (stereo unspecified) has a pIC50 of 7.82. COc1ccccc1C(CNC(=O)Cc1cc(C(F)(F)F)cc(C(F)(F)F)c1)N1CCC(O)(c2ccccc2)CC1 (stereo unspecified) was tested, and the pIC50 was 6.89. Cc1c(F)cccc1C(CNC(=O)Cc1cc(C(F)(F)F)cc(C(F)(F)F)c1)N1CCC(N2CCCCC2)CC1 (stereo unspecified) was tested, and the pIC50 was 8.52. Work on O=C(Cc1cc(C(F)(F)F)cc(C(F)(F)F)c1)NCC(C(c1ccccc1)c1ccccc1)N1CCC(N2CCCCC2)CC1 (stereo unspecified) yielded a pIC50 of 6.89. COc1cccc(C(CNC(=O)Cc2cc(C(F)(F)F)cc(C(F)(F)F)c2)N2CCC(N3CCCCC3)CC2)c1OC (stereo unspecified) was tested, and the pIC50 was 8.12. O=C(Cc1cc(C(F)(F)F)cc(C(F)(F)F)c1)NCC(c1ccc2c(c1)OCCO2)N1CCC(N2CCCCC2)CC1 (stereo unspecified) was tested, and the pIC50 was 6.85. CN(CC(c1cccc2c1OCO2)N1CCC(N2CCCCC2)CC1)C(=O)Cc1ccccc1Cl (stereo unspecified) showed a pIC50 of 7.92. In the case of CC(C)N1CCN(C(CNC(=O)Cc2cc(C(F)(F)F)cc(C(F)(F)F)c2)c2cccc3c2OCO3)CC1 (stereo unspecified), the pIC50 was 8.16. Molecule O=C(Cc1cc(C(F)(F)F)cc(C(F)(F)F)c1)NCC(c1ccccc1)N1CCC(N2CCCCC2)CC1 (stereo unspecified) has a pIC50 of 8.27. COc1ccc(OC)c(C(CNC(=O)Cc2cc(C(F)(F)F)cc(C(F)(F)F)c2)N2CCC(N3CCCCC3)CC2)c1 (stereo unspecified) showed a pIC50 of 6.96. COc1ccccc1C(CNC(=O)Cc1ccc(Cl)cc1)N1CCN(C2CCCCC2)CC1 (stereo unspecified) was tested, and the pIC50 was 6.07. O=C(Cc1cc(C(F)(F)F)cc(C(F)(F)F)c1)NCC(c1ccccc1Br)N1CCC(N2CCCCC2)CC1 (stereo unspecified) showed a pIC50 of 9.06. O=C(Cc1cc(C(F)(F)F)cc(C(F)(F)F)c1)NCC(c1cccc2ccccc12)N1CCN(C2CCCCC2)CC1 (stereo unspecified) showed a pIC50 of 8.55. CN(CC(c1ccc(Cl)c(Cl)c1)N1CCC(N2CCCCC2)CC1)C(=O)Cc1cc(C(F)(F)F)cc(C(F)(F)F)c1 (stereo unspecified) gave a pIC50 of 8.64. For CN(CC(Cc1ccccc1)N1CCC(N2CCCCC2)CC1)C(=O)Cc1cc(C(F)(F)F)cc(C(F)(F)F)c1 (stereo unspecified), the pIC50 was 7.49. In the case of O=C(Cc1cc(C(F)(F)F)cc(C(F)(F)F)c1)NCC(Cc1ccccc1)N1CCC(N2CCCCC2)CC1 (stereo unspecified), the pIC50 was 7.09. CN(CC(c1cccc2c1OCO2)N1CCC(N2CCCCC2)CC1)C(=O)C(c1ccccc1)c1ccccc1 (stereo unspecified) gave a pIC50 of 7.66. Cc1c(F)cccc1C(CN(C)C(=O)Cc1cc(C(F)(F)F)cc(C(F)(F)F)c1)N1CCC(N2CCCCC2)CC1 (stereo unspecified) gave a pIC50 of 8.85. Molecule CN(CC(c1ccc(F)cc1Cl)N1CCC(N2CCCCC2)CC1)C(=O)Cc1cc(C(F)(F)F)cc(C(F)(F)F)c1 (stereo unspecified) has a pIC50 of 8.82. For COc1ccc(C(CNC(=O)Cc2cc(C(F)(F)F)cc(C(F)(F)F)c2)N2CCC(N3CCCCC3)CC2)c(OC)c1OC (stereo unspecified), the pIC50 was 6.68. With COc1cc(C(=O)N(C)CC(c2cccc3c2OCO3)N2CCC(N3CCCCC3)CC2)cc(OC)c1OC (stereo unspecified) the pIC50 was 7.43. Molecule O=C(Cc1cc(C(F)(F)F)cc(C(F)(F)F)c1)NCC(c1ccc(F)cc1Cl)N1CCC(N2CCCCC2)CC1 (stereo unspecified) has a pIC50 of 8.77. Work on CC(C)N1CCN(C(CN(C)C(=O)Cc2cc(C(F)(F)F)cc(C(F)(F)F)c2)c2cccc3c2OCO3)CC1 (stereo unspecified) yielded a pIC50 of 8.85.

— ChEMBL document CHEMBL1133521, “Multiple-conformation and protonation-state representation in 4D-QSAR: the neurokinin-1 receptor system” (J Med Chem, 2000)
